For assay [1], the target named is dihydrodipicolinate reductase (DHPR) (Escherichia coli, UniProt P04036). Put plainly: DHPR kinetic assay, spectrophotometric oxidation of NADPH at 340 nm. Format: biochemical. As for the experimental part: For DHPR analysis, the compounds were screened using a kinetic protocol that spectrophotometrically evaluates oxidation of NADPH.
Stock solutions of each of the reagents were prepared in the following concentrations. Dilutions of the stock solutions were prepared prior to running the assay in the concentrations indicated below. DHPR was diluted in 10 mM HEPES at a pH of 7.4. DHPS (dihydrodipicolinate synthase) was not diluted and was stored in eppindorf tubes.
The L-ASA (L-aspartate semialdehyde) solution was prepared in the following manner. […] stock solution of ASA was prepared. 100 μl of the ASA stock solution was mixed with 150 μl of concentrated NaHCO3 and 375 μl of H2O. For use in the assay, 28.8 mM L-ASA was equal to 625 μl of the solution. The L-ASA stock Aft solution was kept at a temperature of −20° C. After dilution, the pH of the 28.8 mM solution was checked and maintained between 1 and 2.
The DHPS reaction was monitored at 340 nm prior to and after addition of the inhibitor to detect background reaction with the inhibitor. The solution for background detection was a 945 μl solution containing 0.1 HEPES (pH 7.8), 1 mM pyruvate, 6 μM NADPH, 40 μM L-ASA, and 7 μl of 1 mg/ml DHPS at 25° C. in the volumes provided above. The sample solution was then mixed and incubated for 10 minutes. Next, 500 nM solutions of the inhibitors and enough DMSO to provide a final DMSO concentration of 5% of the total assay volume were added. The solution was mixed and incubated for an additional 6 minutes.
In DHPR samples, 5 μl of the diluted DHPR enzyme were added. The sample was mixed for 20 seconds and then the reaction was run for 10 minutes. After a 50 second lag, the samples were read in a Cary spectrophotometer at 340 nm. Reading of the samples was continued until 300 seconds. Cuvette #1 contained the control reaction (no inhibitor), and cuvette #2 contained the positive control reaction in which Cibacron Blue at 2.58 μM was substituted for inhibitor to yield 70 to 80% inhibition. The substrate was kept at a level at least 10 times the Km. The final concentration of L-ASA was about 1 mM.

The target of assay [2] is T1, alcohol dehydrogenase (ADH) (Saccharomyces cerevisiae, UniProt P00330).
T1 construct: 10 μl of ADH from Bakers Yeast; host or cells: baker's yeast
T1 sequence (P00330 1-348): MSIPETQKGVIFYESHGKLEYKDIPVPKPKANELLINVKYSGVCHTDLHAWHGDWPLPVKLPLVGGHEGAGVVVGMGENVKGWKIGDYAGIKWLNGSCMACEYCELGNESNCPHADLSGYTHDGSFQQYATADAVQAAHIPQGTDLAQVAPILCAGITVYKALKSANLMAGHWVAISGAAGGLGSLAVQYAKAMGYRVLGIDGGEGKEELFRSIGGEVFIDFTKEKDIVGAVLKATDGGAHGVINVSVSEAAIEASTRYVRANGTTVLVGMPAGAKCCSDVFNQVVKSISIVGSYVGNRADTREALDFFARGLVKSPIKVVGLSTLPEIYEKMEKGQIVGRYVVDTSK
Put plainly: ADH kinetic assay, spectrophotometric reduction of NAD+ at 340 nm. The class given is biochemical, Bakers Yeast. As for the experimental part:
For ADH analysis, the compounds were screened using a kinetic protocol that spectrophotometrically evaluates reduction of NAD+.
Stock solutions of each of the reagents were prepared in the following concentrations. Dilutions of the stock solutions were prepared prior to running the assay in the concentrations indicated below.
The ADH reaction was monitored at 340 nm prior to and after addition of the inhibitor to detect background reaction with the inhibitor. Solutions of 100 μl of the inhibitors in DMSO were prepared to provide a final DMSO concentration of 5% of the total assay volume. These solutions were incubated for 6 minutes at 25° C. in a 990 μl of a solution containing 0.1 M HEPES, pH 8.0, 80 μM NAD+, and 130 mM of ethanol. The reaction was then initiated with 10 μl of ADH from Bakers Yeast ([…]; 1:400 dilution of 1.0 mg/ml). After the enzyme was added, the solution was mixed for 20 seconds, and the reaction was run for 10 minutes. After a 50 second lag, the samples were read in a Cary spectrophotometer at 340 nm. Reading of the samples was continued until 300 seconds. Cuvette #1 contained the control reaction (no inhibitor), and cuvette #2 contained the positive control reaction in which Cibacron Blue at 15.5 μM was substituted for inhibitor to yield 50 to 60% inhibition. The substrate was kept at a level at least 10 times the Km. The final concentration of […] was about 2.5 mM.
Where only a simple read was desired, as in the case of NAD+ concentration determination, 13 μl (10 M stock) of ethanol was used to drive the reaction, and 10 μl of pure enzyme (1 mg/ml) was used. NAD+was soluble at 2 mM, which allowed the concentration determination step to be skipped. In this situation, the procedure was as follows. All of the ingredients except for the enzyme were mixed together. The solution was mixed well and the absorbance at 340 nm read. The enzyme was added and read again at OD 340 after the absorbance stopped changing, generally 10 to 15 minutes after the enzyme was added.

In assay [3] the target is dihydrofolate reductase (DHFR) (UniProt P00374). The assay is described as follows: DHFR kinetic assay, spectrophotometric oxidation of NADH at 340 nm. Format: biochemical. As for the experimental part: For DHFR analysis, the compounds were screened using a kinetic protocol that spectrophotometrically evaluates oxidation of NADH.
Stock solutions of each of the reagents were prepared in the following concentrations. Dilutions of the stock solutions were prepared prior to running the assay in the concentrations indicated below. H2 folate was dissolved in DMSO to about 10 mM and then diluted with water to a concentration of 0.1 mM.
The DHFR reaction was monitored at 340 nm prior to and after addition of the inhibitor to detect background reaction with the inhibitor. Solutions of 100 μl of the inhibitors in DMSO were prepared to provide a final DMSO concentration of 5% of the total assay volume. These solutions were incubated for 6 minutes at 25° C. in a 992 μl of a solution containing 0.1 M Tris-HCl, pH 7.0, 150 mM KCl, 5 μM H2 folate, and 52 μM NADH. The oxidation reaction was then initiated with 8 μl of DHFR (0.047 mg/ml). After the enzyme was added, the solution was mixed for 20 seconds, and the reaction was run for 10 minutes. After a 50 second lag, the samples were read in a Cary spectrophotometer at 340 nm. Reading of the samples was continued until 300 seconds. Cuvette #1 always contained the control reaction (no inhibitor), and cuvette #2 always contained the positive control reaction in which Cibacron Blue at 3 μM was substituted for inhibitor to yield 50 to 70% inhibition. […]

Each structure is given as a SMILES string. Read-outs that look alike come from different tables or passages of the source. Where only a bound is given, the exact number is not on record here.

dihydrodipicolinate reductase (DHPR), sequence (P04036 whole entry): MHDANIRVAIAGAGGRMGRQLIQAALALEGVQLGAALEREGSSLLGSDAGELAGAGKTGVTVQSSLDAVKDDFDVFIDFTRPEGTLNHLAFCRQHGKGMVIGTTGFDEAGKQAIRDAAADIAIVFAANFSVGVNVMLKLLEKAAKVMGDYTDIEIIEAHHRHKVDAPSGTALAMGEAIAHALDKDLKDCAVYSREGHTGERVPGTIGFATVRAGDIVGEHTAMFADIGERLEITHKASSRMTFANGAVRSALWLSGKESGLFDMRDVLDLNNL
dihydrofolate reductase (DHFR), sequence (P00374 whole entry): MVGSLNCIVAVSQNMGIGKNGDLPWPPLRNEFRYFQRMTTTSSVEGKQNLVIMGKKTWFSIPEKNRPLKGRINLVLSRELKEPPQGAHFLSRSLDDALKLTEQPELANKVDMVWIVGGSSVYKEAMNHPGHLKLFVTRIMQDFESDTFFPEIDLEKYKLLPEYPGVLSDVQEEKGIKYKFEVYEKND

In the case of `O=C(O)c1ccc(-c2ccc(-c3nc4cc([N+](=O)[O-])ccc4[nH]3)o2)cc1` [compound 6d, 4-[5-(5-nitro-1H-benzoimidazol-2-yl)-furan-2-yl]-benzoic acid], the IC50 (commonly the concentration needed to halve the response being measured) was greater than 75 µM in assay [1] (IC50 for DHPR, Example 13 oxidoreductase panel (FIG. 7)); greater than 75 µM in assay [1] (IC50 for DHPR, Example 14, common ligand mimics (FIG. 8)); greater than 150 µM in assay [2]; 48.5 µM in assay [3] (read-out: IC50 for DHFR; Example 13 oxidoreductase panel (FIG. 7)).

In the case of `O=C(O)c1ccc(-c2ccc(-c3nc4ccccc4[nH]3)o2)cc1` [compound 6b, 4-[5-(1H-benzoimidazol-2-yl)-furan-2-yl] benzoic acid], the 50% inhibitory concentration (IC50) in assay [1] (Example 13 oxidoreductase panel (FIG. 7), read-out: IC50 for DHPR) is greater than 48 µM; in assay [1] (Example 14, common ligand mimics (FIG. 8), read-out: IC50 for DHPR) it was 32.6 µM; in assay [2] it was 49 µM; in assay [3] (Example 13 oxidoreductase panel (FIG. 7); read-out: IC50 for DHFR), greater than 40 µM.
